The values below come from ChEMBL document CHEMBL1201862, “PubChem BioAssay data set” (2004).

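All cell lines were grown in 96-well plates and treated with compound for 48 hours. GI50 = concentration required for 50% inhibition of growth.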 Active and inactive are the calls of the source. No stated cut-off is given here; in the data, active = GI50 up to about 1.1 µM and inactive = higher.

Among the test systems are U-251; NCI-H522; SK-MEL-28; IGROV-1; MDA-MB-231; HCT-15; A498; SW-620; HT-29; KM12; NCI-H226; UACC-257; UO-31; OVCAR-3; SF-295; DU-145; OVCAR-4; MDA-N; HL-60; RPMI-8226.
Holding throughout (assay): NCI-60 cell line screen, 48 h

For the molecule `O=c1[nH]c2c(S)nc(O)nc2n1-c1ccccc1`, the GI50 in the experiment on U-251 was > 100 µM (inactive); with NCI-H522, > 100 µM (inactive); in the experiment with SK-MEL-28, > 100 µM (inactive); in the experiment on IGROV-1, > 100 µM (inactive); in the experiment with MDA-MB-231 it was > 100 µM (inactive); in the experiment with HCT-15, more than 100 µM. The GI50 with A498, in the experiment on SW-620, in the experiment on HT-29, in the experiment with KM12, in the experiment on NCI-H226 and with UACC-257 was > 100 µM (inactive) each time. Besides, the GI50 with UO-31, in the experiment on OVCAR-3, with SF-295, in the experiment on DU-145, with OVCAR-4 and with MDA-N was > 100 µM (inactive) throughout.
As for `CC(=O)O[C@H]1C(=O)[C@@]2(C)[C@H]([C@H](OC(=O)c3ccccc3)[C@]3(O)C[C@H](OC(=O)[C@H](O)[C@@H](NC(=O)c4ccccc4)C4CCCCC4)C(C)=C1C3(C)C)[C@]1(OC(C)=O)CO[C@@H]1C[C@@H]2O`, the GI50 was < 0.01 µM (active) in the experiment with U-251; < 0.01 µM (active) with NCI-H522; 34.1 µM (inactive) in the experiment on SK-MEL-28; < 0.01 µM (active) in the experiment with HL-60; < 0.01 µM (active) with IGROV-1; < 0.01 µM (active) with MDA-MB-231. For the same molecule, the GI50 in the experiment on RPMI-8226 is < 0.01 µM (active); in the experiment on HCT-15, 0.12 µM; with SW-620 it was < 0.01 µM (active); in the experiment on HT-29 it was < 0.01 µM (active); in the experiment with KM12, < 0.01 µM (active); in the experiment on NCI-H226, < 0.01 µM (active). The GI50 in the experiment with UO-31 was 0.313 µM (active); in the experiment on OVCAR-3, < 0.01 µM (active); with SF-295, < 0.01 µM (active); with OVCAR-4 it was 0.0227 µM (active); with MDA-N it was < 0.01 µM (active).
In the case of `CC(=O)OCc1ccc(O)c(C=O)c1`, the GI50 with U-251 was 74.8 µM (inactive); with NCI-H522 it was > 100 µM (inactive); in the experiment with SK-MEL-28, > 100 µM (inactive); in the experiment with HL-60 it was 39.6 µM (inactive); with IGROV-1, > 100 µM (inactive); with MDA-MB-231, > 100 µM (inactive). Besides, the GI50 was > 100 µM (inactive) in the experiment on RPMI-8226; 46.5 µM in the experiment with HCT-15; > 100 µM (inactive) in the experiment on SW-620; > 100 µM (inactive) in the experiment with HT-29; > 100 µM (inactive) with KM12; > 100 µM (inactive) in the experiment with NCI-H226. The GI50 is > 100 µM (inactive) in the experiment on UACC-257; 56.8 µM (inactive) with UO-31; > 100 µM (inactive) in the experiment with OVCAR-3; > 100 µM (inactive) in the experiment on SF-295; > 100 µM (inactive) with DU-145; > 100 µM (inactive) in the experiment on OVCAR-4. The GI50 in the experiment with MDA-N is 64.6 µM (inactive).
For `CN(Cc1cc(Cl)c(Cl)cc1NC(=O)CN)[C@H]1CCCC[C@@H]1N1CCCC1`, the GI50 is 5.2 µM (inactive) in the experiment on U-251; 18.4 µM (inactive) with NCI-H522; 19.8 µM (inactive) in the experiment on SK-MEL-28; 40.4 µM (inactive) in the experiment on HL-60; 66.2 µM (inactive) with IGROV-1; 38.5 µM (inactive) in the experiment on MDA-MB-231. The GI50 was 18.4 µM (inactive) in the experiment on A498; 37.5 µM (inactive) in the experiment with SW-620; 19 µM (inactive) in the experiment on HT-29; 44.4 µM (inactive) in the experiment with KM12; 66.4 µM (inactive) with NCI-H226; 16.9 µM (inactive) with UACC-257. For the same molecule, the GI50 is 20.7 µM (inactive) with UO-31; 74 µM (inactive) with OVCAR-3; 18.6 µM (inactive) in the experiment on SF-295; > 100 µM (inactive) in the experiment with OVCAR-4; 17 µM (inactive) in the experiment on MDA-N.
In the case of `CC(C)(C)CN1[C@@H]2CCCC[C@H]2N(CC(C)(C)C)P1(=O)Cc1ccccc1`, the GI50 with U-251 was 13.4 µM (inactive); in the experiment with NCI-H522, 7.48 µM (inactive); in the experiment on SK-MEL-28 it was 16.9 µM (inactive); with HL-60, 11.3 µM (inactive); in the experiment with IGROV-1, 11 µM (inactive); in the experiment with MDA-MB-231, 12.2 µM (inactive). Further, the GI50 with HCT-15 is 12 µM; in the experiment with SW-620, 14 µM (inactive); in the experiment with HT-29, 10.1 µM (inactive); in the experiment with KM12, 13.1 µM (inactive); in the experiment on NCI-H226, 12.9 µM (inactive); in the experiment with UACC-257, 12.8 µM (inactive). The GI50 is 13.3 µM (inactive) in the experiment with UO-31; 10.7 µM (inactive) in the experiment with OVCAR-3; 10.4 µM (inactive) in the experiment with SF-295; 15.6 µM (inactive) with DU-145; 10.4 µM (inactive) in the experiment with OVCAR-4; 14.9 µM (inactive) in the experiment on MDA-N.
Consider `CCCCc1ccc(-n2sc3ncc(C)cc3c2=O)cc1`, for which the GI50 is 32.7 µM (inactive) in the experiment with U-251; 16.3 µM (inactive) with NCI-H522; 96.2 µM (inactive) in the experiment on SK-MEL-28; 8.57 µM (inactive) in the experiment with HL-60; 21.7 µM (inactive) in the experiment on IGROV-1; 25.6 µM (inactive) in the experiment on MDA-MB-231. The GI50 with RPMI-8226 was 22 µM (inactive); with HCT-15 it was 16.4 µM; in the experiment on SW-620, 27.4 µM (inactive); with KM12, 22.7 µM (inactive); in the experiment with NCI-H226, > 100 µM (inactive); in the experiment on UO-31, 6.1 µM (inactive). The GI50 was 18.5 µM (inactive) with OVCAR-3; 45.2 µM (inactive) in the experiment on SF-295; 30.3 µM (inactive) with DU-145; 33.7 µM (inactive) with OVCAR-4; 51.5 µM (inactive) in the experiment on MDA-N.
As to `CCOC(=O)Cn1nnc2ccc(Nc3nc4ccccc4nc3C(=O)OCC)cc21`, the GI50 with U-251 is 74 µM (inactive); in the experiment on NCI-H522 it was 39.7 µM (inactive); in the experiment with SK-MEL-28 it was > 100 µM (inactive); in the experiment on HL-60, > 100 µM (inactive); in the experiment on IGROV-1, > 100 µM (inactive); with RPMI-8226, > 100 µM (inactive). Moreover, the GI50 was more than 100 µM with HCT-15; > 100 µM (inactive) in the experiment on A498; > 100 µM (inactive) with SW-620; > 100 µM (inactive) in the experiment on HT-29; > 100 µM (inactive) in the experiment with KM12; > 100 µM (inactive) in the experiment on NCI-H226. Also, the GI50 in the experiment on UACC-257 is > 100 µM (inactive); in the experiment on UO-31, 30.1 µM (inactive); in the experiment on OVCAR-3, > 100 µM (inactive); in the experiment on SF-295, 34.7 µM (inactive); with DU-145, 74.1 µM (inactive); with OVCAR-4, > 100 µM (inactive). Further, in the experiment on MDA-N, the GI50 is > 100 µM (inactive).
Take `CC(=O)Oc1ccc2c(c1)O/C(=C\c1ccc(O)cc1)C2=O`: the GI50 was > 100 µM (inactive) in the experiment with U-251; 28.4 µM (inactive) in the experiment with NCI-H522; > 100 µM (inactive) in the experiment with SK-MEL-28; > 100 µM (inactive) with HL-60; > 100 µM (inactive) with IGROV-1; > 100 µM (inactive) in the experiment with MDA-MB-231. The GI50 was > 100 µM (inactive) in the experiment with RPMI-8226; more than 100 µM with HCT-15; > 100 µM (inactive) in the experiment on SW-620; > 100 µM (inactive) in the experiment on KM12; > 100 µM (inactive) with NCI-H226; > 100 µM (inactive) in the experiment with UACC-257. For the same molecule, the GI50 in the experiment on UO-31, in the experiment with OVCAR-3, in the experiment with SF-295, in the experiment on DU-145, in the experiment on OVCAR-4 and in the experiment on MDA-N was > 100 µM (inactive) each time.
As for `N#CC(c1cc2c(cc1Br)OCO2)N1CCOCC1` (stereo unspecified), the GI50 with NCI-H522 is > 100 µM (inactive); in the experiment on SK-MEL-28, > 100 µM (inactive); with HL-60 it was 3.33 µM (inactive); with IGROV-1 it was 58.1 µM (inactive); with MDA-MB-231, 43.7 µM (inactive); in the experiment on RPMI-8226, 20.3 µM (inactive). The GI50 in the experiment with SW-620 is 9.04 µM (inactive); in the experiment with HT-29 it was 42.5 µM (inactive); in the experiment on KM12, 67.6 µM (inactive); in the experiment on NCI-H226 it was 61.5 µM (inactive); in the experiment with UACC-257 it was > 100 µM (inactive); in the experiment with UO-31 it was 71.4 µM (inactive). The GI50 is 30.1 µM (inactive) with OVCAR-3; 53 µM (inactive) in the experiment on SF-295; 48.5 µM (inactive) in the experiment with DU-145; > 100 µM (inactive) with OVCAR-4; 18.2 µM (inactive) with MDA-N.
For the molecule `COC(=O)C1CC2(CCC1=O)Cc1ccccc1C2=O` (stereo unspecified), the GI50 was > 100 µM (inactive) in the experiment with U-251; 67.8 µM (inactive) with NCI-H522; > 100 µM (inactive) in the experiment with SK-MEL-28; > 100 µM (inactive) with HL-60; > 100 µM (inactive) with IGROV-1; > 100 µM (inactive) in the experiment on MDA-MB-231. In addition, the GI50 in the experiment with RPMI-8226 was 65.5 µM (inactive); with HCT-15 it was more than 100 µM; with SW-620, > 100 µM (inactive); in the experiment with HT-29, > 100 µM (inactive); in the experiment with KM12, > 100 µM (inactive); in the experiment with NCI-H226, 47.4 µM (inactive). Also, the GI50 in the experiment with UACC-257 is > 100 µM (inactive); with UO-31, > 100 µM (inactive); with SF-295, 82.2 µM (inactive); in the experiment on DU-145, > 100 µM (inactive); in the experiment on OVCAR-4, > 100 µM (inactive); in the experiment with MDA-N it was > 100 µM (inactive).
For the molecule `CCN(CC)CCNc1ccc2ncn3c4c(OC)ccc(OC)c4c(=O)c1c23`, the GI50 is 15.5 µM (inactive) with U-251; 15.7 µM (inactive) in the experiment on NCI-H522; 21.2 µM (inactive) in the experiment with SK-MEL-28; > 10 µM (inactive) in the experiment with IGROV-1; 12 µM (inactive) in the experiment with MDA-MB-231; 16 µM with HCT-15. Also, the GI50 with A498 is 93.3 µM (inactive); in the experiment with SW-620 it was 0.853 µM (active); in the experiment on HT-29 it was > 10 µM (inactive); in the experiment with KM12, 9.16 µM (inactive); in the experiment on NCI-H226, 90.8 µM (inactive); in the experiment on UACC-257, > 100 µM (inactive). Further, the GI50 with UO-31 is > 100 µM (inactive); with OVCAR-3 it was 30.3 µM (inactive); in the experiment with SF-295, 13.3 µM (inactive); in the experiment on DU-145 it was 12.9 µM (inactive); in the experiment with OVCAR-4, 6.11 µM (inactive); with MDA-N it was 10.8 µM (inactive).
